In US8883199B2, “Administration regime for N-hydroxy-4-{2-[3-(N,N-dimethylaminomethyl)benzofuran-2-ylcarbonylamino]ethoxy}benzamide” (priority 2011, dated 2014):

Tests used:
[1] = tested on: patients with solid tumours; test: Clinical Study 1: toxicity and efficacy in monotherapy, two p.o. administration regimes
Method: A clinical study was set up to test the toxicity and efficacy of N-hydroxy-4-{2-[3-(N,N-dimethylaminomethyl)benzofuran-2-ylcarbonylamino]ethoxy}benzamide hydrochloride. 36 patients with solid tumours were included and treated in this study. A first administration regime was tested over a cycle of three weeks, with 14 consecutive days of 2 p.o. administrations 4 hours apart, followed by a week without treatment. Four dosage levels were successively tested from 30 to 75 mg/m^2 (expressed as a salt) twice daily. The acceptability of the various N-hydroxy-4-{2-[3-(N,N-dimethylaminomethyl)-benzofuran-2-ylcarbonylamino]ethoxy}benzamide dose levels were evaluated (especially, haematological toxicities) at the end of the first cycle.
This cycle can be repeated as many times as necessary for treatment of the cancer.

[2] = tested on: cultured tumour cells; settings: cultured tumour cells in vitro; cited from earlier work
[3] = tested on: xenograft models; settings: in vivo; cited from earlier work
[4] = tested on: histone deacetylase (HDAC); settings: cited from earlier work

## CN(C)Cc1c(C(=O)NCCOc2ccc(C(=O)NO)cc2)oc2ccccc12 [N-hydroxy-4-{2-[3-(N,N-dimethylaminomethyl)benzofuran-2-ylcarbonylamino]ethoxy}benzamide]
[1]; first regime: 14 consecutive days of 2 p.o. administrations 4 hours apart, then a week without treatment, hydrochloride, dose expressed as a salt, 36 patients with solid tumours
  maximum tolerated dose: 75 mg/m^2 twice daily
[1]; human, in vivo
  platelet toxicity, second regime compared with first regime: less platelet toxicity than the previous regime
  reversibility of thrombopenias: reversible
[1]; human, in vivo, 3 weeks
  toxicities which limited increasing the dose: grade 4 thrombopenias
[1]; human, in vivo, po, 3 weeks
  recommended dose: 90 mg/m^2 twice daily
[1]; second regime: 4 consecutive days of 2 p.o. administrations 4 hours apart, then 3 days without treatment, each of the 3 weeks of a cycle
  maximum tolerated dose: 105 mg/m^2 twice daily
[2]
  apoptosis: induces apoptosis
  cell growth: inhibition of cell growth
[3]
  tumour growth: inhibits tumour growth
[4]
  histone deacetylase (HDAC) inhibition: powerful
